Measured values reported in US4000281A, “Pyrazole derivatives” (priority 1971, dated 1976).

Test system: rhinovirus type 7 (SF1470)
Assay: Inhibition of rhinovirus cytopathogenic effect in human embryonic lung cultures, type 7
Type: cell-based
Details: 50 and 75 μgm/ml
Method: Other tests were carried out to determine the inhibitory effect of 3-(4-pyridyl)-4-(2-hydroxyphenyl)-5-ethylpyrazole on various types of rhinovirus.
In each test two cultures of human embryonic lung were prepared of which one was treated with the above compound while the other served as control. The cultures were then infected with a strain of rhinovirus. The compound was used in concentrations of 50 and 75 μgm/ml and was considered to be active if the cytopathogenic effect of the rhinovirus was reduced by at least 75% as compared to the control culture. This cytopathogenic effect was determined by counting the number of plaques formed by destroyed cells.
Seven human types of rhinovirus were employed and the following results registered: […]

**Q.** With CCc1[nH]nc(-c2ccncc2)c1-c1ccccc1O [Compound A, 3-(4-pyridyl)-4-(2-hydroxyphenyl)-5-ethylpyrazole] as the compound, how does the ACTIVITY read?
**A.** Its ACTIVITY is “+ (active)”.
